# Data reported in patent publication US20240238228A1, “COMPOSITIONS AND METHODS FOR TREATING ALLERGIES AND INFLAMMATORY CONDITIONS” (UNIVERSITY OF PITTSBURGH-OF THE COMMONWEALTH SYSTEM OF …, priority 2021, published 2024).
# Key:
# BMMCs = experiment: Avidin / LAMP-1 surface staining of activated BMMCs; type: cell-based, murine; design: effect on LAMP-1^+ and avidin^+ BMMCs: dose or concentration left out as unconfirmed
# Experimental: MCs were collected and washed with PBS containing 0.5% BSA and 0.1% sodium azide. Non-specific binding was inhibited using FcBlock (PBS with 2.0% goat serum and 0.25 mg/mL anti-CD16/32 (clone 2.4G2, BD Biosciences). Surface staining was done with anti-CD117 eFluor450 (clone 2B8, ThermoFisher), anti-FcεRI FITC (clone MAR-1, ThermoFisher) and anti-ABCA1 Alexa Fluor 647 (clone 5A1-1422, BioRad). Cells were washed with Wash Buffer (PBS with 0.5% BSA and 0.1% sodium azide). To detect differences in granulated proteins at the cell surface, IgE-loaded MCs were activated with DNP-HSA with or without NKA in Tyrode's Buffer for 30 min, washed with Wash Buffer then stained with Avidin Alexa Fluor488 (Invitrogen, Av488, 0.8 μg/5×10^5 cells) and anti-LAMP-1 PE (clone eBio 1D48, ThermoFisher). Data were acquired on either a LSRII or a Fortessa (BD BioSciences). Analysis was performed with FlowJo v10.4 (BD Biosciences).
# PMCs = experiment: IgE+Ag-activated PMCs: cytokine release (ELISA); type: cell-based, murine; design: detectible levels of IL-10 / levels of IL-13: dose or concentration left out as unconfirmed
# Experimental: Mast cells were differentiated from murine bone marrow as has been described. In brief, marrow was expunged from the femurs and tibias of female mice. Cultures were maintained in complete MC/9 medium containing recombinant murine IL-3 (25 ng/mL, Peprotech) for 4-6 weeks prior to use. Peritoneal MCs (PMCs) were expanded from peritoneal washes with MC/9 medium supplemented with IL-3 (25 ng/mL) and SCF (Peprotech, 10 ng/mL) for 21 days. Purity of BMMCs and PMCs was confirmed to be greater than 95% (FIG. 8A). To initiate signaling via the FcεRI, MCs were loaded with IgE (1.0 μg/ml, clone SPE-7, Sigma) for a minimum of 1 h then crosslinked with dinitrophenyl-human serum albumin (DNP-HSA, 100 ng/mL or as indicated). NKA (either LifeTein (Summerset, NJ) or Phoenix Pharmaceuticals (Burlingham, CA)) stock solutions were prepared in tissue culture grade water (100 μM) and stored at −20° C. for a maximum of 30 days. Glyburide (Cayman Chemical) was prepared in DMSO then diluted in PBS. Calpain activity was detected from cell-free supernatants using the Calpain-Glo Protease Assay (Promega). Supernatants were incubated with substrate for 10 min prior to luminescent detection. In some experiments, glyburide or vehicle (0.1% DMSO) were added to cells 10 min prior to Ag. ELISA kits from eBioscience (IL-13), BioLegend, (TNF and IL-10) or RayBiotech (NKA) and used in accord with the manufacturer's recommendations.
# calpain = experiment: Calpain activity in cell-free supernatants of activated BMMCs; type: cell-based, murine
# Experimental: Calpain activity was detected from cell-free supernatants using the Calpain-Glo Protease Assay (Promega). Supernatants were incubated with substrate for 10 min prior to luminescent detection. In some experiments, glyburide or vehicle (0.1% DMSO) were added to cells 10 min prior to Ag. ELISA kits from eBioscience (IL-13), BioLegend, (TNF and IL-10) or RayBiotech (NKA) and used in accord with the manufacturer's recommendations.
# [1] = system: passive cutaneous anaphylaxis (PCA); experiment: Passive cutaneous anaphylaxis (PCA) in mice; type: in vivo, mouse
# Experimental: Mouse ears were measured with a micrometer then sensitized with IgE in filter-sterilized PBS (Sigma, clone SPE-7, 20 ng/50 μl/ear) or vehicle control. Twenty-four hours later mice were treated with NKA (10 μg/ear, intradermal) or vehicle (PBS) 3 h prior to Ag (DNP-HSA 100 μg, in 200 μl, intravenous in saline) administration. Data are presented as change in ear thickness between baseline and the indicated time. […] Edema was evaluated histologically and as a function of Evans blue dye extravasation. For histological evaluation, mice were euthanized 2 h after PCA induction. Paraformaldehyde (4.0%) fixed ears were processed for hematoxylin and eosin staining. Pathology was blindly evaluated on an Axiostar plus microscope equipped with epifluorescence and a digital camera (AxioCam; Zeiss). For dye extravasation, Ag was delivered in 1.0% Evans blue dye. Ninety min later mice were euthanized, and ears were excised. Dye was extracted in DriSolv (EMD Millipore) and quantified as absorbance at OD 650 nm. Data are shown as OD650/mg of tissue. Cytokine expression in the skin was investigated 24 h after PCA induction. Mice were euthanized, ears excised, and tissue homogenized in T-PER (ThermoFisher) with Protease Inhibitor Cocktail (Sigma). Protein concentrations were quantified using the BCA Protein Assay (Pierce). The protein profile of skin homogenates was characterized with C-Series Mouse Cytokine Antibody Array C1 (RayBiotech). Densitometry values subtracting the median background from individual spot areas were calculated with ImageStudioLite v5.2.5. The densitometry value from each cytokine spot was divided by the mean densitometry of positive control spots to give relative protein expression. Data were from each experiment were normalized as (Relative Expression [Treated]/Relative expression [Vehicle]). In some experiments, ELISAs were performed on skin homogenates. Neutrophil influx was evaluated as a function of myeloperoxidase (MPO) activity. To detect MPO activity, tissue was homogenized with a Next Advance Bullet Homogenizer in 50 mM KPG4 with 50 mM […]. Homogenate was incubated with ODP (Sigma) with 0.005% H2O2 for 30 minutes. Enzymatic reactions were stopped with 1N HCl and absorbance was read at 450 nm.
# IL-10 = IL-10 degradation assays on BMMC supernatants; type: cell-based, murine
# Experimental: To detect early IL-10 release, 4×10^6 cells were incubated in serum free RPMI for a minimum of three hours prior to IgE loading and activation with DNP-HSA (100 ng/mL). Supernatants were collected and IL-10 was detected in accord with manufacturer's recommendations using 1.0% BSA to block and a top standard of 250 pg/mL. The lower limit of detection was 7.8 pg/mL. To evaluate the role of relationship between calpain and IL-10, cell-free supernatants were collected 10 min after activation and incubated with Ac-calpastatin (Ac-Cal; 20 μg/mL, Cayman) or vehicle control. […] To directly test IL-10 proteolysis, MCs were activated for 45 min, cell free supernatants were collected and pulsed with recombinant IL-10 (Biolegend, 250 pg/mL).
# [2] = increasing concentrations of glyburide 10 min prior to activation, supernatants 30 min after activation
# [3] = control Mcpt5Cre^+×IL10^WT PMCs
# [4] = 24 h after PCA induction, NKA pretreatment
# [5] = 24 h after PCA induction, NKA pretreatment, listed as Neurokinin A
# [6] = NKA 10 μg/ear intradermal 3 h prior to Ag
compound,measurement,setting,value
"COc1ccc(Cl)cc1C(=O)NCCc1ccc(S(=O)(=O)NC(=O)NC2CCCCC2)cc1 [glyburide, reference compound]",effect on LAMP-1^+ and avidin^+ BMMCs,BMMCs; IgE-activated 30 minutes,less robust effect
same,levels of TNF,"PMCs; glyburide 50 mM, 20-24 h in culture",decreased
same,detectible levels of IL-10,"PMCs; glyburide, 20-24 h in culture",increased
same,levels of IL-13,"PMCs; glyburide, 20-24 h in culture",decreased
same,calpain activity,calpain; [2],reduced
same,ear thickness at 24 h,[1]; glyburide 2.5 mg/kg i.p. 3 h prior to PCA induction,significantly reduced
same,IL-10 levels,IL-10; [2],increasing
Neurokinin A [NKA],avidin^+ granules and LAMP-1 on the cell surface,"BMMCs; 30 min after activation, with or without NKA",equivalent amounts
same,IL-13 release,PMCs; [3],inhibited
same,TNF release,PMCs; [3],inhibited
same,effects of NKA on IL-13 and TNF release,PMCs; without PMC-derived IL-10 (Mcpt5Cre^+×IL10^fl/fl),reversed
same,extracellular calpain activity,calpain; IgE+Ag with or without NKA for 60 min,significantly downregulated
same,IFNγ levels in skin (protein array),[1]; [4],"not statistically significant, IFNγ levels increased"
same,IL-3 in IgE-treated skin (protein array),[1]; [4],significantly reduced
same,IL-6 in IgE-treated skin (protein array),[1]; [4],significantly reduced
same,IL-13 in IgE-treated skin (protein array),[1]; [4],down-regulated
same,MCP1 in IgE-treated skin (protein array),[1]; [4],significantly reduced
same,RANTES in IgE-treated skin (protein array),[1]; [4],significantly reduced
same,TNF in IgE-treated skin (protein array),[1]; [4],down-regulated
same,IL-13 in IgE-treated skin (protein array),[1]; [5],significantly reduced
same,TNF in IgE-treated skin (protein array),[1]; [5],significantly reduced
same,Evans blue dye extravasation,[1]; Mcpt5Cre^+×IL10/l mice,no effect
same,Evans blue dye extravasation,[1]; Mcpt5Cre^+×IL10^WT mice,inhibited
same,IL-13 in the skin by ELISA,"[1]; Mcpt5 Cre^+×IL10^WT mice, 24 h",significantly downregulated
same,TNF in the skin by ELISA,"[1]; Mcpt5 Cre^+×IL10^WT mice, 24 h",significantly downregulated
same,immune-regulatory capacity (ear measurements) at 2 h and 24 h after PCA induction,[1]; Mcpt5Cre^+×IL10^fl/fl mice,lost
same,"ear thickness, early (1-2 hours) phase of PCA",[1]; [6],reduced ear thickness
same,"ear thickness, late phase of PCA (24 h)",[1]; [6],reduced ear thickness
same,Evans blue dye extravasation,"[1]; NKA 10 μg/ear intradermal 3 h prior to Ag, 90 min after Ag",reduced Evans blue dye extravasation
same,"edema in histological sections, early phase of PCA","[1]; NKA 10 μg/ear intradermal 3 h prior to Ag, 2 h after PCA induction",a reduction in edema
same,IL-10 protein in total skin homogenates,[1]; NKA pretreated mice,did not increase
same,"myeloperoxidase activity in skin homogenates, 24 h",[1]; NKA pretreatment,reduced myeloperoxidase activity
same,"neutrophil influx in histological sections, late phase (24 h)",[1]; NKA pretreatment,reduced neutrophil influx
same,IL-13 in the skin,[1]; absence of MC-derived IL-10,increased
same,TNF in the skin,[1]; absence of MC-derived IL-10,increased
same,"PCA, including degranulation-associated edema",[1]; overall statement,fully inhibited
same,early IL-10 in supernatants,IL-10; 60 min after activation with NKA,significantly more IL-10
same,degradation of early IL-10 / pulsed rIL-10 by released proteases,IL-10; cell-free supernatants pulsed with rIL-10 for 30 min,disrupted
